Active and inactive are the calls of the source. The rule behind the calls is not given here.
Assays:
[1] = Genotoxicity in mouse 3T3 cells assessed as primary DNA damage at 0.1 to 5 microM incubated for 24 hrs by comet assay; assay type: toxicity, cell-based; conditions: nih3t3, 24 h, dose 0.1-5 µM
MCF7 [2] = assay: Cytotoxicity against human MCF7 cells assessed as reduction in cell viability measured after 24 hrs; assay type: functional, cell-based; conditions: MCF7, 24 h
RAW264.7 = assay: Cytotoxicity against mouse RAW264.7 cells assessed as reduction in cell viability measured after 24 hrs; assay type: functional, cell-based; conditions: RAW264.7, 24 h
[3] = Selectivity index, ratio of IC50 for mouse 3T3 cells to IC50 for human HepG2 cells; assay type: toxicity; conditions: 3T3 cells and HepG2 cells, read-out: Ratio IC50
SiHa = assay: Cytotoxicity against human SiHa cells assessed as reduction in cell viability measured after 24 hrs; assay type: functional, cell-based
HepG2 = assay: Cytotoxicity against human HepG2 cells assessed as reduction in cell viability measured after 24 hrs; assay type: functional, cell-based; conditions: HepG2, 24 h
NIH3T3 [4] = assay: Induction of apoptosis in mouse 3T3 cells assessed as increase in necrotic cells at 0.1 to 1 microM incubated for 24 hrs by Annexin V/PI staining based fluorescence microscopic analysis; assay type: toxicity, cell-based; conditions: nih3t3, 24 h, dose 0.1-1 µM
[5] = Genotoxicity in mouse 3T3 cells assessed as cell death at 0.1 to 5 microM incubated for 24 hrs by LMW comet assay; assay type: toxicity, cell-based; conditions: nih3t3, 24 h, dose 0.1-5 µM
A549 = assay: Cytotoxicity against human A549 cells assessed as reduction in cell viability measured after 24 hrs; assay type: functional, cell-based; conditions: A549, 24 h
[6] = Selectivity index, ratio of IC50 for mouse 3T3 cells to IC50 for human SiHa cells; assay type: toxicity; conditions: 3T3 cells and SiHa cells, read-out: Ratio IC50
[7] = Cytotoxicity against mouse 3T3 cells assessed as reduction in cell viability measured after 24 hrs; assay type: toxicity, cell-based; conditions: NIH3T3 cells
[8] = Selectivity index, ratio of IC50 for mouse 3T3 cells to IC50 for mouse J774.A1 cells
NIH3T3 [9] = assay: Antioxidant activity in mouse 3T3 cells assessed as reduction in ROS level at 0.1 to 5 uM incubated for 24 hrs by DCFH-DA dye based fluorescence microplate reader analysis; assay type: functional, cell-based; conditions: dose 0.1-5 µM
[10] = Cytotoxicity against human OVCAR cells assessed as reduction in cell viability measured after 24 hrs; assay type: functional, cell-based
J774.A1 = assay: Cytotoxicity against mouse J774.A1 cells assessed as reduction in cell viability measured after 24 hrs; assay type: functional, cell-based; conditions: J774.A1, 24 h
NIH3T3 [11] = assay: Disruption of mitochondrial membrane potential in mouse 3T3 cells at 0.1 to 5 uM incubated for 24 hrs by […] inclusion assay; assay type: toxicity, cell-based; conditions: nih3t3, 24 h, dose 0.1-5 µM
[12] = Selectivity index, ratio of IC50 for mouse 3T3 cells to IC50 for human A549 cells; assay type: toxicity; conditions: 3T3 cells and A549 cells, read-out: Ratio IC50
NIH3T3 [13] = assay: Induction of apoptosis in mouse 3T3 cells assessed as increase in early apoptotic cells at 0.1 to 1 microM incubated for 24 hrs by Annexin V/PI staining based fluorescence microscopic analysis; assay type: toxicity, cell-based; conditions: nih3t3, 24 h, dose 0.1-1 µM
[14] = Selectivity index, ratio of IC50 for mouse 3T3 cells to IC50 for mouse RAW264.7 cells
MCF7 [15] = assay: Potency index, ratio of hymecromone IC50 to test compound IC50 for cytotoxicity against human MCF7 cells assessed as reduction in cell viability measured after 24 hrs; assay type: functional
[16] = Selectivity index, ratio of IC50 for mouse 3T3 cells to IC50 for human MCF7 cells; assay type: toxicity; conditions: 3T3 cells and MCF7 cells, read-out: Ratio IC50
[17] = Selectivity index, ratio of IC50 for mouse 3T3 cells to IC50 for human OVCAR cells
[18] = Antioxidant activity assessed as DPPH radical scavenging activity measured at 50 to 600 sec by spectrophotometric analysis; assay type: functional
NIH3T3 [19] = assay: Cytotoxicity against mouse 3T3 cells assessed as reduction in cell viability at 40 uM measured after 24 hrs relative to control; assay type: toxicity, cell-based; conditions: nih3t3, 24 h
NIH3T3 [20] = assay: Induction of apoptosis in mouse 3T3 cells assessed as increase in late apoptotic cells at 1 microM incubated for 24 hrs by Annexin V/PI staining based fluorescence microscopic analysis; assay type: toxicity, cell-based; conditions: nih3t3, 24 h

Structure (SMILES)	Activity [1]	IC50 (MCF7 [2]) [µM]	selectivity ratio [3]	IC50 (SiHa) [µM]	IC50 (HepG2) [µM]	Activity (NIH3T3 [4])	Activity [5]	IC50 (A549) [µM]	selectivity ratio [6]	IC50 at 24 h [7] [µM]	Ratio IC50 [8]	Activity (NIH3T3 [9])	IC50 [10] [µM]	IC50 (J774.A1) [µM]	Activity (NIH3T3 [11])	selectivity ratio [12]	Activity (NIH3T3 [13])	Ratio IC50 (MCF7 [15])	selectivity ratio [16]	Ratio IC50 [17]	other results
Cc1cc(=O)oc2cc(OCCn3cc(CO)nn3)ccc12	Non-Toxic	10.1	0.031	> 100	> 100	Non-Toxic	Non-Toxic	> 100	0.002	5.21	0.037	Active	> 100	> 100	Non-Toxic	0.017	Toxic	5	0.516	< 0.001	IC50 (RAW264.7): 5.08 µM; Ratio IC50 [14]: 0.025
O=c1ccc2cc(O)c(O)cc2o1 [ESCULETIN]	–	–	–	–	–	–	–	–	–	–	–	–	–	–	–	–	–	–	–	–	IC50 [18]: 25.2 µM
Cc1cc(=O)oc2cc(OCCn3cc(COc4cccc5c(C)cc(=O)oc45)nn3)ccc12	Non-Toxic	5.04	0.221	> 100	88.3	Non-Toxic	Non-Toxic	> 100	0.001	> 40	0.001	Active	> 100	> 100	Toxic	0.175	Toxic	5	> 7.93	0.012	Activity (NIH3T3 [19]): Non-Toxic; IC50 (RAW264.7): 8.37 µM; Ratio IC50 [14]: 2.33
Cc1cc(=O)oc2cc(OCCn3cc(CCN4C(=O)c5ccccc5C4=O)nn3)ccc12	Non-Toxic	2.66	0.007	> 100	87.6	Non-Toxic	Non-Toxic	80.8	< 0.001	0.62	–	inactive	91.3	39.5	Toxic	0.007	Toxic	5	0.233	–	–
Cc1cc(=O)oc2cc(O)ccc12 [HYMECROMONE]	Non-Toxic	54.8	0.161	> 100	> 100	Non-Toxic	Non-Toxic	> 100	0.011	24	0.171	Active	> 100	> 100	Non-Toxic	0.155	Toxic	–	0.438	0.021	–
Cc1cc(=O)oc2c(O)c(O)cc(C(=O)O)c12	–	–	–	–	–	–	–	–	–	–	–	–	–	–	–	–	–	–	–	–	IC50 [18]: 17.5 µM
Cc1cc(=O)oc2cc(OCCn3cc(-c4ccccc4)nn3)ccc12	Non-Toxic	2.85	0.014	> 100	> 100	Non-Toxic	Non-Toxic	> 100	< 0.001	2.41	0.072	inactive	> 100	33	Toxic	0.007	Toxic	5	0.845	0.004	Activity (NIH3T3 [20]): Toxic
Cc1cc(=O)oc2c(O)c(O)ccc12 [4-METHYLDAPHNETIN]	–	–	–	–	–	–	–	–	–	–	–	–	–	–	–	–	–	–	–	–	IC50 [18]: 33.5 µM

Reference: ChEMBL document CHEMBL5257152, “Antiproliferative activity and toxicity evaluation of 1,2,3-triazole and 4-methyl coumarin hybrids in the MCF7 breast cancer cell line” (RSC Med Chem, 2023)
